Columns and labels:
PARP1 = PARP1 (Homo sapiens, UniProt P09874); assay: PARP1 chemiluminescent assay; format: biochemical; details: recombinant PARP1 enzyme activity, chemiluminescence
Protocol: (§1) Mix the solution of recombinant poly ADP ribotransferase 1 and 2 (PARP1 and PARP2) (40 ng enzyme/well) and the compounds to be tested, respectively. And then added to a 96-well plate coated with […] mixture, incubated at room temperature for 1 h. Then add 50 μL 0.3 ng/mL Streptavidin-HRP to each well. The plates were incubated for 30 minutes at room temperature. Finally, the plates were treated with streptavidin-HRP followed by addition of the ELISA ECL substrate to produce chemiluminescence that can then be measured using a chemiluminescence reader. The inhibition rate of the compound to PARP1/2 enzyme activity was calculated according to the following formula. [formula] IC50 value is obtained by fitting the s-shaped dose response curve equation by using XL Fit software. The curve equation is Y=100/(1+10^(log C−log IC50)), C is the compound concentration. Table 1 summarizes the inhibitory effects of compounds on PARP1 and PARP2 enzyme activity (IC50), wherein +++++ indicates IC50≤1 nM; ++++ indicates 1<IC50≤10 nM; +++ indicates 10 nM<IC50≤100 nM: ++ indicates 100 nM<IC50≤1 μM; + indicates IC50>1 μM.

PARP2 = PARP2 (Homo sapiens, UniProt Q9UGN5); assay: PARP2 chemiluminescent assay; format: biochemical; details: recombinant PARP2 enzyme activity, chemiluminescence
Sequence of PARP2 (Q9UGN5 whole entry, species assumed): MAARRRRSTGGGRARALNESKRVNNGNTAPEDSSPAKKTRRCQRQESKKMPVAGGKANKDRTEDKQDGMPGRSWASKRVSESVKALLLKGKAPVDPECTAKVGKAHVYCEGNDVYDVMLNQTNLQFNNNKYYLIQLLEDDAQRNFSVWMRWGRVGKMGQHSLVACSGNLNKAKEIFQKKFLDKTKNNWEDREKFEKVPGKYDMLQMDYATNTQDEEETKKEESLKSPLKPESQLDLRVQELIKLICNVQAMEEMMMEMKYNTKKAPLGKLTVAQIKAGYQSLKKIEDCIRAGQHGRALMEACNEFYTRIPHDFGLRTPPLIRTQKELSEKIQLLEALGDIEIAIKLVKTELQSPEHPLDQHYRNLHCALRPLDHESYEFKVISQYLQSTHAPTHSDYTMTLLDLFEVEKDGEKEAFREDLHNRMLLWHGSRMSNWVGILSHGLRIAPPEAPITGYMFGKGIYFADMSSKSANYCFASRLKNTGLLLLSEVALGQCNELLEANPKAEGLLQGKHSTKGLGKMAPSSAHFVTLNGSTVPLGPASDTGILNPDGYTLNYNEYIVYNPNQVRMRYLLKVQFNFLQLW
Protocol: as §1

MDA-MB-436 cells = assay: Inhibition of proliferation of human breast cancer MDA-MB-436 cell line (CCK-8, 7 days); format: cell-based; details: proliferation of MDA-MB-436, 7 days
Summary of the method: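 Cells seeded at 3000/well were treated next day with 8 serial doses (DMSO control) for 7 days at 37° C., 5% CO2, with compound medium changed on day four. CCK-8 was added for 4 hours and OD read as 450 nm minus 650 nm. IC50 came from a sigmoidal fit of survival relative to DMSO.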

Sequence of PARP1 (P09874 whole entry): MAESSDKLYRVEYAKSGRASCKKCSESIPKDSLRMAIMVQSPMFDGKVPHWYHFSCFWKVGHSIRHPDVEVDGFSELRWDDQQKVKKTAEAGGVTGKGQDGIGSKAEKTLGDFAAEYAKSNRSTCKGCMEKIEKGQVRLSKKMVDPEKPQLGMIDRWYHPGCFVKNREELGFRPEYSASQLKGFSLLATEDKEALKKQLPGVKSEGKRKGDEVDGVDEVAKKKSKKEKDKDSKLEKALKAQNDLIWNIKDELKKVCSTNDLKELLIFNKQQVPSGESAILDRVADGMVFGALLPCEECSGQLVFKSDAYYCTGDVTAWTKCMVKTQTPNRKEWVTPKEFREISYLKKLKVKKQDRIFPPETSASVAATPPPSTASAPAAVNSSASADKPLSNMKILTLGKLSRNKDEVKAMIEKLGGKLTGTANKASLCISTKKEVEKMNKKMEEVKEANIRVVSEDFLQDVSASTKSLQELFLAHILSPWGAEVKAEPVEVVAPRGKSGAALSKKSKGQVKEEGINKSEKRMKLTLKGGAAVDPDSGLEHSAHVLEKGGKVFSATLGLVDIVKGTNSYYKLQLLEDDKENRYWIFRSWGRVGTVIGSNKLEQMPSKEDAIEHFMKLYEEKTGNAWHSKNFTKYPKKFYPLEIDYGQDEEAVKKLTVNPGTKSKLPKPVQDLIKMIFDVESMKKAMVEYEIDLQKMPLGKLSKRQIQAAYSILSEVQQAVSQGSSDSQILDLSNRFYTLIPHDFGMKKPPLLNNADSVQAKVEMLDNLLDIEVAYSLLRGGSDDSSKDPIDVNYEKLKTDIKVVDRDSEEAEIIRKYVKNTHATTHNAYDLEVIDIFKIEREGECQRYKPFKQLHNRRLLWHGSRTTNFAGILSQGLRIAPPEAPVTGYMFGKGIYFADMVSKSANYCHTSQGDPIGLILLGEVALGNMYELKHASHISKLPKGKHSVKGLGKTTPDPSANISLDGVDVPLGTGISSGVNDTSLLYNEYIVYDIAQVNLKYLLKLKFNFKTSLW

Row | IC50 (PARP1) | IC50 (PARP2) | IC50 (MDA-MB-436 cells; Homo sapiens, 168 h) | IC50 (MDA-MB-436 cells) | Compound
1 | 1 to 10 nM | > 1000 nM | 0.01 to 0.1 µM |  | CCn1c(=O)[nH]c2cc(CN3CCN(c4ccc(C(=O)NC)nc4Cl)CC3)c(F)cc2c1=O [Example 61, 6-chloro-5-(4-((3-ethyl-6-fluoro-2,4-dioxo-1,2,3,4-tetrahydroquinazolin-7-yl)methyl)piperazin-1-yl)-N-methylpicolinamide]
2 | ≤ 1 nM | > 1000 nM | > 1 µM |  | CCCn1c(=O)[nH]c2cc(CN3CCN(c4ccc(C(=O)NC)nc4)CC3)cnc2c1=O [Example 7]
3 | 1 to 10 nM | 100 to 1000 nM | 0.01 to 0.1 µM |  | CCn1c(=O)[nH]c2cc(CN3CCN(c4ccc(C(=O)NC(C)C)nc4F)CC3)ccc2c1=O [Example 34, 5-(4-((3-ethyl-2,4-dioxo-1,2,3,4-tetrahydroquinazolin-7-yl)methyl)piperazin-1-yl)-6-fluoro-N-isopropylpicolinamide]
4 | > 1000 nM | > 1000 nM | > 1 µM |  | CCn1c(=O)[nH]c2cc(CN3CCN(c4ccc(C(=O)NC)nc4)CC3)ccc21 [Example 16, 5-(4-((1-ethyl-2-oxo-2,3-dihydro-1H-benzo[d]imidazol-5-yl)methyl)piperazin-1-yl)-N-methylpicolinamide]
5 | 1 to 10 nM | > 1000 nM | 0.01 to 0.1 µM |  | CNC(=O)c1ccc(N2CCN(Cc3ccc4c(=O)n(C)c(=O)[nH]c4c3)CC2)c(F)n1 [Example 17, 5-(4-((3-methyl-2,4-dioxo-1,2,3,4-tetrahydroquinazolin-7-yl)methyl)piperazin-1-yl)-6-fluoro-N-methylpicolinamide]
6 | 1 to 10 nM | > 1000 nM | 0.01 to 0.1 µM |  | CCn1c(=O)[nH]c2cc(CN3CCN(c4ccc(C(=O)NC)nc4C)CC3)cnc2c1=O [Example 4, 5-(4-((3-ethyl-2,4-dioxo-1,2,3,4-tetrahydropyrido[3,2-d]pyrimidin-7-yl)methyl)piperazin-1-yl)-N,6-dimethylpicolinamide]
7 | ≤ 1 nM | 10 to 100 nM | 0.001 to 0.01 µM |  | CCn1c(=O)[nH]c2cc(CN3CCN(c4ccc(C(=O)NC)nc4Cl)CC3)ccc2c1=O [Example 21, 5-(4-((3-ethyl-2,4-dioxo-1,2,3,4-tetrahydroquinazolin-7-yl)methyl)piperazin-1-yl)-6-chloro-N-methylpicolinamide]
8 | ≤ 1 nM | > 1000 nM | 0.1 to 1 µM |  | CCc1nc(C(=O)NC)ccc1N1CCN(Cc2ccc3c(=O)n(CC)c(=O)[nH]c3c2)CC1 [Example 31, 5-(4-((3-ethyl-2,4-dioxo-1,2,3,4-tetrahydroquinazolin-7-yl)methyl)piperazin-1-yl)-6-ethyl-N-methylpicolinamide]
9 | 1 to 10 nM | > 1000 nM | > 1 µM |  | CCn1c(=O)[nH]c2cc(CN3CCN(c4ccc(C(=O)NC)nc4Cl)CC3)cnc2c1=O [Example 10, 5-(4-((3-ethyl-2,4-dioxo-1,2,3,4-tetrahydropyrido[3,2-d]pyrimidin-7-yl)methyl)piperazin-1-yl)-6-chloro-N-methylpicolinamide]
10 | 1 to 10 nM | > 1000 nM | 0.001 to 0.01 µM |  | CCN1Cc2ccc(CN3CCN(c4ccc(C(=O)NC)nc4Cl)CC3)cc2NC1=O [Example 115]
11 | 1 to 10 nM | > 1000 nM | 0.1 to 1 µM |  | CNC(=O)c1ccc(N2CCN(Cc3ccc4c(=O)n(C(C)C)c(=O)[nH]c4c3)CC2)c(F)n1 [Example 26, 5-(4-((3-isopropyl-2,4-dioxo-1,2,3,4-tetrahydroquinazolin-7-yl)methyl)piperazin-1-yl)-6-fluoro-N-methylpicolinamide]
12 | ≤ 1 nM | 100 to 1000 nM | > 1 µM |  | CCn1c(=O)[nH]c2cc(CN3CCN(c4ccc(C(=O)NC)nc4)CC3)cnc2c1=O [Example 1, 5-(4-((3-ethyl-2,4-dioxo-1,2,3,4-tetrahydropyrido[3,2-d]pyrimidin-7-yl)methyl)piperazin-1-yl)-N-methylpicolinamide]
13 | 1 to 10 nM | 100 to 1000 nM | > 1 µM |  | CCn1c(=O)[nH]c2cc(CN3CCN(c4ccc(C(=O)NC)nn4)CC3)ccc2c1=O [Example 29, 6-(4-((3-ethyl-2,4-dioxo-1,2,3,4-tetrahydroquinazolin-7-yl)methyl)piperazin-1-yl)-N-methylpyridazine-3-carboxamide]
14 | 1 to 10 nM | 100 to 1000 nM | 0.001 to 0.01 µM |  | CCn1c(=O)[nH]c2cc(CN3CCN(c4ccc(C(=O)NC5CC5)nc4F)CC3)ccc2c1=O [Example 135, N-cyclopropyl-5-(4-((3-ethyl-2,4-dioxo-1,2,3,4-tetrahydroquinazolin-7-yl)methyl)piperazin-1-yl)-6-fluoropicolinamide]
15 | 10 to 100 nM | > 1000 nM | > 1 µM |  | CCCn1c(=O)[nH]c2cc(-c3cccc(C(=O)Nc4ccc(C(=O)NC)nc4)c3)ccc2c1=O [Example 47, 5-(3-(3-propyl-2,4-dioxo-1,2,3,4-tetrahydroquinazolin-7-yl)benzamido)-N-methylpicolinamide]
16 | 10 to 100 nM | > 1000 nM | 0.01 to 0.1 µM |  | CCn1c(=O)[nH]c2c(F)c(CN3CCN(c4ccc(C(=O)NC)nc4F)CC3)ccc2c1=O [Example 24, 5-(4-((3-ethyl-8-fluoro-2,4-dioxo-1,2,3,4-tetrahydroquinazolin-7-yl)methyl)piperazin-1-yl)-6-fluoro-N-methylpicolinamide]
17 | 10 to 100 nM | > 1000 nM | > 1 µM |  | CNC(=O)c1ccc(N2CCN(Cc3cnc4c(=O)n(C(C)C)c(=O)[nH]c4c3)CC2)cn1 [Example 3, 5-(4-((3-isopropyl-2,4-dioxo-1,2,3,4-tetrahydropyrido[3,2-d]pyrimidin-7-yl)methyl)piperazin-1-yl)-N-methylpicolinamide]
18 | 1 to 10 nM | 1 to 10 nM |  | 0.001 to 0.01 µM | O=C(c1cc(Cn2c(=O)[nH]c(=O)c3c(F)cccc32)ccc1F)N1CCN(c2ncccn2)CC1 [Senaparib, reference compound]
19 | 1 to 10 nM | > 1000 nM | 0.1 to 1 µM |  | CCN1Cc2ccc(CN3CCN(c4ccc(C(=O)NC)nc4)CC3)cc2NC1=O [Example 15, 5-(4-((3-ethyl-2-oxo-1,2,3,4-tetrahydroquinazolin-7-yl)methyl)piperazin-1-yl)-N-methylpicolinamide]
20 | 1 to 10 nM | 100 to 1000 nM | 0.01 to 0.1 µM |  | CCn1c(=O)[nH]c2cc(CN3CCN(c4ccc(C(N)=O)nc4F)CC3)ccc2c1=O [Example 32, 5-(4-((3-ethyl-2,4-dioxo-1,2,3,4-tetrahydroquinazolin-7-yl)methyl)piperazin-1-yl)-6-fluoropicolinamide]
21 | 1 to 10 nM | 100 to 1000 nM | 0.01 to 0.1 µM |  | CCNC(=O)c1ccc(N2CCN(Cc3ccc4c(=O)n(CC)c(=O)[nH]c4c3)CC2)c(Cl)n1 [Example 83, 6-chloro-N-ethyl-5-(4-((3-ethyl-2,4-dioxo-1,2,3,4-tetrahydroquinazolin-7-yl)methyl)piperazin-1-yl)picolinamide]
22 | 1 to 10 nM | 100 to 1000 nM | 0.001 to 0.01 µM |  | CCn1c(=O)[nH]c2cc(CN3CCN(c4ccc(C(=O)NC)nc4F)CC3)cc(F)c2c1=O [Example 25, 5-(4-((3-ethyl-5-fluoro-2,4-dioxo-1,2,3,4-tetrahydroquinazolin-7-yl)methyl)piperazin-1-yl)-6-fluoro-N-methylpicolinamide]
23 | 10 to 100 nM | 10 to 100 nM | > 1 µM |  | CCn1c(=O)[nH]c2cc(CN3CCN(c4ncc(C(=O)NC)cn4)CC3)ccc2c1=O [Example 30, 2-(4-((3-ethyl-2,4-dioxo-1,2,3,4-tetrahydroquinazolin-7-yl)methyl)piperazin-1-yl)-N-methylpyrimidine-5-carboxamide]
24 | 1 to 10 nM | 100 to 1000 nM | 0.01 to 0.1 µM |  | CCn1c(=O)[nH]c2cc(CN3CCN(c4ccc(C(=O)NC)nc4Cl)CC3)cc(F)c2c1=O [Example 62, 6-chloro-5-(4-((3-ethyl-5-fluoro-2,4-dioxo-1,2,3,4-tetrahydroquinazolin-7-yl)methyl)piperazin-1-yl)-N-methylpicolinamide]
25 | 1 to 10 nM | > 1000 nM | 0.01 to 0.1 µM |  | CCN1Cc2ccc(CN3CCN(c4ccc(C(=O)NC)nc4C)CC3)cc2NC1=O [Example 116]
26 | 1 to 10 nM | > 1000 nM | 0.01 to 0.1 µM |  | CCCn1c(=O)[nH]c2cc(CN3CCN(c4ccc(C(=O)NC)nc4F)CC3)ccc2c1=O [Example 19, 5-(4-((2,4-dioxo-3-propyl-1,2,3,4-tetrahydroquinazolin-7-yl)methyl)piperazin-1-yl)-6-fluoro-N-methylpicolinamide]

Source: patent publication US20240208969A1, “SUBSTITUTED FUSED BICYCLIC COMPOUNDS AS PARP INHIBITORS AND THE USE THEREOF” (IMPACT THERAPEUTICS (SHANGHAI), INC., priority 2021, published 2024)
